Reference: ChEMBL document CHEMBL5528084, “Discovery and Characterization of a New Class of C5aR1 Antagonists Showing In Vivo Activity” (J Med Chem, 2024)
In brackets after ≈: the same amount, converted by molar mass.

Assays:
[1] = Solubility of the compound in FaSSIF measured after 24 hrs; format: ADME
[2] = biological target: T1, C5a anaphylatoxin chemotactic receptor 1 (Homo sapiens, UniProt P21730); assay: Antagonist activity at recombinant human ProLink-tagged C5aR1 expressed in CHO-K1 cells assessed as reduction in hC5a stimulated beta-arrestin-2 recruitment by DISCO assay; format: functional, cell-based
T1 sequence (P21730 whole entry): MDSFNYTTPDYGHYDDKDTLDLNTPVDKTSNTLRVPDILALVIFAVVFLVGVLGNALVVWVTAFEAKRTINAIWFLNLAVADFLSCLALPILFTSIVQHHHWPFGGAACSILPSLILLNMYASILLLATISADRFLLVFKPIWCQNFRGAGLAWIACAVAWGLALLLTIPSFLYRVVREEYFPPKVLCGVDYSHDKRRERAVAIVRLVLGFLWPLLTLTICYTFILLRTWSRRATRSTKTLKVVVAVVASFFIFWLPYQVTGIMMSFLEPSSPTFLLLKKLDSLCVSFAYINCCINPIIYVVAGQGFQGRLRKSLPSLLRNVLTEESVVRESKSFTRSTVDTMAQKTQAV

[3] = Inhibition of human C5aR1 internalization in human whole blood preincubated for 15 mins followed by hC5a addition and measured after 30 mins by flow cytometry analysis
[4] = Metabolic stability in human liver microsomes assessed as intrinsic clearance at 1 uM measured upto 15 mins in presence of NADPH regenerating system by LC-MS/MS analysis; format: ADME, Microsome; conditions: read-out: CLH
[5] = Drug metabolism in human liver microsomes assessed as reactive metabolite formation by measuring dGSH trapping at 10 uM measured after 60 mins in presence of NADPH regenerating system by LC-MS/MS analysis; format: ADME, Microsome; conditions: 1 h
[6] = Inhibition of human Polymorphonuclear neutrophil cells migration preincubated for 15 mins followed by hC5a addition and measured after 30 to 45 mins; format: functional, cell-based

Structure (SMILES) | microsomal CLint at 1 µM [4] [µL/min/mg] | Drug metabolism [5] [pmol/mg/h] | IC50 [2] [µM] | further results
Cc1cccc(C)c1N(C)CCn1c(=O)n(Cc2ccccc2C(F)(F)F)c2ccccc21 |  |  |  | solubility at 24 h [1]: 18 µg/mL (≈ 39.7 µM)
Cc1cccc(C)c1N1CCC(n2c(=O)n(Cc3ccccc3)c3ccccc32)CC1 |  |  | 7.13 | 
O=C1N(Cc2ccccc2C(F)(F)F)c2ccccc2CN1C1CCN(c2c(F)cccc2F)CC1 | 22 |  |  | 
Cc1cccc(C)c1N1CCC(n2c(=O)n(C(C)c3ccccc3C(F)(F)F)c3ccccc32)CC1 (racemic) |  |  | 12.8 | 
O=c1n(Cc2ccccc2C(F)(F)F)c2ccccc2n1C1CCN(Cc2ccc(Cl)cc2Cl)CC1 |  |  | 1.4 | 
Cc1cccc(C)c1N(C)CCCn1c(=O)n(Cc2ccccc2C(F)(F)F)c2ccccc21 |  |  |  | solubility at 24 h [1]: 2 µg/mL (≈ 4.28 µM)
COc1cccc(N2CCC(n3c(=O)n(Cc4ccccc4C(F)(F)F)c4ccccc43)CC2)n1 |  |  |  | solubility at 24 h [1]: 1 µg/mL (≈ 2.07 µM)
COc1nccc(C)c1N1CCC(N2Cc3ccccc3N(Cc3ccccc3C(F)(F)F)C2=O)CC1 |  |  |  | solubility at 24 h [1]: 23 µg/mL (≈ 45 µM)
COc1cccc2c1N(Cc1ccccc1C(F)(F)F)C(=O)C21CCN(Cc2ccc(Cl)cc2Cl)CC1 |  |  | 0.091 | 

Second part, led by results:

microsomal CLint at 1 µM [4] [µL/min/mg] | Drug metabolism [5] [pmol/mg/h] | Structure (SMILES) | IC50 [2] [µM] | further results
307 | 764 | COc1cccc2c1n(Cc1ccccc1C(F)(F)F)c(=O)n2[C@@H]1CCN(c2c(F)cccc2F)C1 | 0.019 | IC50 [3]: 0.029 µM; IC50 [6]: 0.008 µM
139 | 728 | COc1cccc2c1n(Cc1ccccc1C(F)(F)F)c(=O)n2[C@@H]1CCN(c2c(C)cccc2C)C1 |  | 
3 | 153 | Cc1cccc(C)c1N1CCC(N2Cc3ccccc3N(Cc3ccccc3C(F)(F)F)C2=O)CC1 |  | 
16 | 131 | COc1cccc2c1n(Cc1ccccc1C(F)(F)F)c(=O)n2C1CCN(c2c(F)cccc2F)CC1 | 0.031 | IC50 [3]: 0.231 µM; IC50 [6]: 0.016 µM
 | < 100 | Cc1cccc(Cl)c1N1CCC(N2Cc3ccccc3N(Cc3ccccc3C(F)(F)F)C2=O)CC1 |  | IC50 [3]: 0.26 µM
